BindingDB's records for doi:10.1016/j.bioorg.2015.11.006 (Universiti Teknologi Mara (Uitm), 2016)

Biological target: Alpha-glucosidase MAL12 (Saccharomyces cerevisiae (strain ATCC 204508 / S288c), UniProt P53341)
Assay: Baker's Yeast α-Glucosidase Inhibition Assay
Conditions: pH 6.8
Experimental: The enzyme inhibition was evaluated according to the method previously reported by Rahim et al. [25] with slight modification. Various concentration of test compounds (10 µL) were dissolved in DMSO (ranging from 200 to 6.25 µg/mL) and premixed with 95 µL of 50 mM phosphate buffer (pH 6.8). Then, 25 µL of enzyme(0.0625 U/mL) in phosphate buffer saline was added into each well and the plate was incubated at 37 °C for 10 min. Afterward, 25 µl of PNPG in phosphate buffer saline (5 mM) were added and pre-read of the plate was taken by using a microplate reader (Spectrostar Nano BMG Labtech, Germany). The reaction mixture was then incubated at 37 °C for 30 min and change in absorbance at 405 nm was monitored up to 30 min. For negative control, the test samples were replaced with 10 µL of DMSO and acarbose was used as positive control

Chain of Alpha-glucosidase MAL12 (P53341 whole entry): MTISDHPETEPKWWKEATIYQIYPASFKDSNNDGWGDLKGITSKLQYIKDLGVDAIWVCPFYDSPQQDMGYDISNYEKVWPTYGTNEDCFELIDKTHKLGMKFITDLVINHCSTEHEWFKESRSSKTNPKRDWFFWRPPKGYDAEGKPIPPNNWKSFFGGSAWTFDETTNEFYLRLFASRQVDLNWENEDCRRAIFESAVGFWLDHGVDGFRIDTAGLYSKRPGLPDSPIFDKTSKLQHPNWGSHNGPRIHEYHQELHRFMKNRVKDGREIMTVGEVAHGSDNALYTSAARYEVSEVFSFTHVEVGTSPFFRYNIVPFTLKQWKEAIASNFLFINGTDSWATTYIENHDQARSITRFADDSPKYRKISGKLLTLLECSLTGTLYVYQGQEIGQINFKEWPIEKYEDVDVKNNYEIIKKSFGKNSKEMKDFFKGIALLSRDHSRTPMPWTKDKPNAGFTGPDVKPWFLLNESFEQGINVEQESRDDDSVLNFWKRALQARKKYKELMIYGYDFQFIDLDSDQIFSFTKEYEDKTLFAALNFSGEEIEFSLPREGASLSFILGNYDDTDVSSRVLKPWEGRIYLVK

IC50	Structure (SMILES)
8.44 µM	COc1ccc(/C=N/NC(=O)c2ccc(-c3nc4cc(C)c(C)cc4[nH]3)cc2)c(O)c1 [(E)-4-(5,6-dimethyl-1H-benzo[d]imidazol-2-yl)-N'-(2-hydroxy-4-methoxybenzylidene) benzohydrazide (10)]
18.2 µM	Cc1cc2nc(-c3ccc(C(=O)N/N=C/c4ccccc4O)cc3)[nH]c2cc1C [(E)-4-(5,6-dimethyl-1H-benzo[d]imidazol-2-yl)-N'-(2-hydroxybenzylidene) benzohydrazide (15)]
24.8 µM	Cc1cc2nc(-c3ccc(C(=O)N/N=C/c4ccccc4C)cc3)[nH]c2cc1C [(E)-4-(5,6-dimethyl-1H-benzo[d]imidazol-2-yl)-N'-(2-methylbenzylidene) benzohydrazide (13)]
8.4 µM	Cc1cc2nc(-c3ccc(C(=O)N/N=C/c4cc(O)c(O)c(O)c4)cc3)[nH]c2cc1C [(E)-4-(5,6-dimethyl-1H-benzo[d]imidazol-2-yl)-N'-(3,4,5-trihydroxybenzylidene) benzohydrazide (19)]
158 µM	Cc1cc2nc(-c3ccc(C(=O)N/N=C/c4cccc(F)c4)cc3)[nH]c2cc1C [(E)-4-(5,6-dimethyl-1H-benzo[d]imidazol-2-yl)-N'-(3-fluorobenzylidene) benzohydrazide (26)]
29 µM	COc1ccc(/C=N/NC(=O)c2ccc(-c3nc4cc(C)c(C)cc4[nH]3)cc2)cc1O [(E)-4-(5,6-dimethyl-1H-benzo[d]imidazol-2-yl)-N'-(3-hydroxy-4-methoxybenzylidene) benzohydrazide (9)]
32.5 µM	Cc1cc2nc(-c3ccc(C(=O)N/N=C/c4cccc(O)c4)cc3)[nH]c2cc1C [(E)-4-(5,6-dimethyl-1H-benzo[d]imidazol-2-yl)-N'-(3-hydroxybenzylidene) benzohydrazide (2)]
15.1 µM	COc1cccc(/C=N/NC(=O)c2ccc(-c3nc4cc(C)c(C)cc4[nH]3)cc2)c1 [(E)-4-(5,6-dimethyl-1H-benzo[d]imidazol-2-yl)-N'-(3-methoxybenzylidene) benzohydrazide (24)]
23.5 µM	Cc1cccc(/C=N/NC(=O)c2ccc(-c3nc4cc(C)c(C)cc4[nH]3)cc2)c1 [(E)-4-(5,6-dimethyl-1H-benzo[d]imidazol-2-yl)-N'-(3-methylbenzylidene) benzohydrazide (14)]
26 µM	Cc1cc2nc(-c3ccc(C(=O)N/N=C/c4ccc(O)cc4)cc3)[nH]c2cc1C [(E)-4-(5,6-dimethyl-1H-benzo[d]imidazol-2-yl)-N'-(4-hydroxybenzylidene) benzohydrazide (1)]
32.6 µM	COc1ccc(/C=N/NC(=O)c2ccc(-c3nc4cc(C)c(C)cc4[nH]3)cc2)cc1 [(E)-4-(5,6-dimethyl-1H-benzo[d]imidazol-2-yl)-N'-(4-methoxybenzylidene) benzohydrazide (20)]
18.3 µM	Cc1ccc(/C=N/NC(=O)c2ccc(-c3nc4cc(C)c(C)cc4[nH]3)cc2)cc1 [(E)-4-(5,6-dimethyl-1H-benzo[d]imidazol-2-yl)-N'-(4-methylbenzylidene) benzohydrazide (16)]
19.3 µM	Cc1cc2nc(-c3ccc(C(=O)N/N=C/c4ccc([N+](=O)[O-])cc4)cc3)[nH]c2cc1C [(E)-4-(5,6-dimethyl-1H-benzo[d]imidazol-2-yl)-N'-(4-nitrobenzylidene) benzohydrazide (25)]
32.1 µM	Cc1cc2nc(-c3ccc(C(=O)N/N=C/c4ccco4)cc3)[nH]c2cc1C [(E)-4-(5,6-dimethyl-1H-benzo[d]imidazol-2-yl)-N'-(furan-2-ylmethylene) benzohydrazide (21)]
25.7 µM	Cc1cc2nc(-c3ccc(C(=O)N/N=C/c4ccccn4)cc3)[nH]c2cc1C [(E)-4-(5,6-dimethyl-1H-benzo[d]imidazol-2-yl)-N'-(pyridin-2-ylmethylene) benzohydrazide (18)]
46 µM	Cc1cc2nc(-c3ccc(C(=O)N/N=C/c4cccnc4)cc3)[nH]c2cc1C [(E)-4-(5,6-dimethyl-1H-benzo[d]imidazol-2-yl)-N'-(pyridin-3-ylmethylene) benzohydrazide (23)]
148 µM	Cc1cc2nc(-c3ccc(C(=O)N/N=C/c4ccncc4)cc3)[nH]c2cc1C [(E)-4-(5,6-dimethyl-1H-benzo[d]imidazol-2-yl)-N'-(pyridin-4-ylmethylene) benzohydrazide (11)]
8.44 µM	COc1ccc(O)c(/C=N/NC(=O)c2ccc(-c3nc4cc(C)c(C)cc4[nH]3)cc2)c1 [(E)-4-(5,6-dimethyl-1H-benzo[d]imidazol-2-yl)-N'-(pyridin-4-ylmethylene) benzohydrazide (12)]
9.99 µM	Cc1cc2nc(-c3ccc(C(=O)N/N=C/c4cccc(O)c4O)cc3)[nH]c2cc1C [(E)-N'-(2,3-dihydroxybenzylidene)-4-(5,6-dimethyl-1H-benzo[d]imidazol-2-yl)benzohydrazide (5)]
8.74 µM	Cc1cc2nc(-c3ccc(C(=O)N/N=C/c4ccc(O)cc4O)cc3)[nH]c2cc1C [(E)-N'-(2,4-dihydroxybenzylidene)-4-(5,6-dimethyl-1H-benzo[d]imidazol-2-yl) benzohydrazide (6)]
8.74 µM	Cc1cc2nc(-c3ccc(C(=O)N/N=C/c4cc(O)ccc4O)cc3)[nH]c2cc1C [(E)-N'-(2,5-dihydroxybenzylidene)-4-(5,6-dimethyl-1H-benzo[d]imidazol-2-yl) benzohydrazide (4)]
12.5 µM	Cc1cc2nc(-c3ccc(C(=O)N/N=C/c4ccc(O)c(O)c4)cc3)[nH]c2cc1C [(E)-N'-(3,4-dihydroxybenzylidene)-4-(5,6-dimethyl-1H-benzo[d]imidazol-2-yl) benzohydrazide (7)]
180 µM	COc1ccc(/C=N/NC(=O)c2ccc(-c3nc4cc(C)c(C)cc4[nH]3)cc2)cc1OC [(E)-N'-(3,4-dimethoxybenzylidene)-4-(5,6-dimethyl-1H-benzo[d]imidazol-2-yl)benzohydrazide (3)]
34.5 µM	Cc1cc2nc(-c3ccc(C(=O)N/N=C/c4ccc(O)c(Br)c4)cc3)[nH]c2cc1C [(E)-N'-(3-bromo-4-hydroxybenzylidene)-4-(5,6-dimethyl-1H-benzo[d]imidazol-2-yl)benzohydrazide (17)]
22.4 µM	Cc1cc2nc(-c3ccc(C(=O)N/N=C/c4cccc(Cl)c4)cc3)[nH]c2cc1C [(E)-N'-(3-chlorobenzylidene)-4-(5,6-dimethyl-1H-benzo[d]imidazol-2-yl) benzohydrazide (8)]
24.8 µM	Cc1cc2nc(-c3ccc(C(=O)N/N=C\c4ccc(Cl)cc4)cc3)[nH]c2cc1C [(Z)-N'-(4-chlorobenzylidene)-4-(5,6-dimethyl-1H-benzo[d]imidazol-2-yl)benzohydrazide (22)]
